Data: PubChem BioAssay AID1919008 (Molecular Pharmacology Branch, DTP, NCI, 2023)

System: DMS-114 complex spheroids with HUVEC/MSC, growth % test/control
Assay: Anticancer human tumor DMS-114 cell line growth inhibition [AhR];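 note: spheroids exposed to agents for 7 days before readout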;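 for viability, T/C: 100% = DMSO vehicle control wells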
Conditions: for IC50: curve of first compound; for viability, T/C: stronger effect = lower value
Excerpt: Multicellular complex tumor spheroid response to aryl hydrocarbon receptor antagonists in combination with a variety of drugs and investigational agents in selected tumor cell lines
The current study was undertaken to assess response to aryl hydrocarbon receptor antagonists in combination with standard-of-care drugs and investigational agents in solid tumor complex spheroid models. Complex spheroids include a stromal component modeled by human endothelial cells (HUVEC) and fibroblasts modeled by human mesenchymal stem cells (MSCs). The concentration ranges selected for each drug and investigational agent were based upon clinically achievable concentrations if the clinical Cmax of the agent was known.
Compounds. The drugs and investigational agents: BAY 2416964 (NSC825713), GNF351 (NSC835774), CH-223191 (NSC835775), CPI-455 (NSC825282), aza-TdCyd (NSC777586), decitabine (NSC127716), belinostat (NSC758774), entinostat (NSC756642), pevonedistat (NSC761192), tazemetostat (NSC777109), talazoparib (NSC765396), olaparib (NSC753686), selinexor (NSC780203), nedisertib (M3814, NSC802822), bortezomib (NSC756655), venetoclax (NSC766270), doxorubicin (NSC123127), elimusertib (BAY189344, NSC800525), ceralasertib (AZD6738, NSC777638), TAK-243 (NSC785004), alisertib (NSC759677), etoposide (NSC141540), topotecan (NSC609699), eribulin (NSC707389), gemcitabine (NSC613327), carboplatin (NSC241240), cisplatin (NSC119875), and SN-38 (NSC673596) were obtained from the National Cancer Institute (NCI) Developmental Therapeutics Program Chemical Repository (32). The FDA-approved anticancer drug set is available from the Developmental Therapeutics Program at https://dtp.cancer.gov/organization/dscb/obtaining/available plates.htm. […] The stock solutions were prepared in dimethyl sulfoxide (DMSO, Sigma-Aldrich, St. Louis, MO, cat. D2650), except for the platinum compounds which were prepared in saline (Quality Biological, Gaithersburg, MD, cat. 114-055-101), at 800-fold the tested concentration and stored at -70 degrees C prior to their use. All drugs and investigational agents were tested over a range starting from a high concentration at or near the clinical Cmax and decreasing in half-log increments. If the clinical Cmax for an agent had not been determined, the highest concentration tested was 10 microM (Table 1).
Cell Culture. All cells were maintained in an incubator at 37 degrees C and 5% CO2 with 95% humidity. The PDC lines were cultured according to standard operating procedures established by the NCI PDMR (https://pdmr.cancer.gov). Briefly, all PDCs were thawed and cultured in Matrigel-coated flasks prepared with a working solution of 1X Ham's F-12 nutrient mix, without supplementation (Invitrogen, Waltham, MA, cat. 11765054), 100 U/mL penicillin-streptomycin (Invitrogen, cat. 15140122), and 2.5% Matrigel (Corning Inc., Corning, NY, cat. 354248) for the first three passages. All PDCs were cultured in complete DMEM/F-12 media containing advanced DMEM/F-12 (Invitrogen, cat. 12634028), 4.9% defined fetal bovine serum, heat inactivated (HyClone Laboratories Inc., Logan, UT, cat. SH30070.03HI), 389 ng/mL hydrocortisone (Sigma-Aldrich, cat. H4001), 9.7 ng/mL human EGF recombinant protein (Invitrogen, cat. PHG0313), 23.4 microg/mL adenine (Sigma-Aldrich, cat. A2786), 97.3 U/mL penicillin-streptomycin (Invitrogen, cat. 15140122), 1.9 mM L-glutamine (Invitrogen, cat. 25030081), and 9.7 microM Y-27632 dihydrochloride (Tocris Bioscience, Bristol, United Kingdom, cat. 1254). The PDCs were cultured in complete DMEM/F12 media without 10 microM Y-27632 dihydrochloride for at least two passages prior to the screen. The established cell lines NCI-H1341 and […] were cultured in DMEM/F-12, HEPES (Invitrogen, cat. 11330032), 5% defined fetal bovine serum (HyClone Laboratories Inc., cat. SH30070.03), ITS premix universal culture supplement [insulin (5 microg/mL), transferrin (5 microg/mL), and selenious acid (5 ng/mL)] […]

Cn1ncnc1C1c2n[nH]c(=O)c3cc(F)cc(c23)NC1c1ccc(F)cc1 (stereo not given) + CC(CO)NC(=O)c1cc(-c2ccc(Cl)cc2)nn(-c2cnn(C)c2)c1=O
IC50 (second compound 0.1 µM): > 100 nM
IC50 (second compound 0.316 µM): > 100 nM
IC50 (second compound 1 µM): > 100 nM
IC50 (second compound 3.16 µM): > 100 nM
IC50 (second compound 10 µM): > 100 nM
viability, T/C (second compound 0.1 µM, first compound 0.000316 µM): 103%
viability, T/C (second compound 0.1 µM, first compound 0.001 µM): 95%
viability, T/C (second compound 0.1 µM, first compound 0.00316 µM): 101%
viability, T/C (second compound 0.1 µM, first compound 0.01 µM): 102%
viability, T/C (second compound 0.1 µM, first compound 0.0316 µM): 97.2%
viability, T/C (second compound 0.1 µM, first compound 0.1 µM): 82%
viability, T/C (second compound 0.316 µM, first compound 0.000316 µM): 105%
viability, T/C (second compound 0.316 µM, first compound 0.001 µM): 95.5%
viability, T/C (second compound 0.316 µM, first compound 0.00316 µM): 103%
viability, T/C (second compound 0.316 µM, first compound 0.01 µM): 84.7%
viability, T/C (second compound 0.316 µM, first compound 0.0316 µM): 82%
viability, T/C (second compound 0.316 µM, first compound 0.1 µM): 84.1%
viability, T/C (second compound 1 µM, first compound 0.000316 µM): 103%
viability, T/C (second compound 1 µM, first compound 0.001 µM): 116%
viability, T/C (second compound 1 µM, first compound 0.00316 µM): 109%
viability, T/C (second compound 1 µM, first compound 0.01 µM): 92.1%
viability, T/C (second compound 1 µM, first compound 0.0316 µM): 84%
viability, T/C (second compound 1 µM, first compound 0.1 µM): 101%
viability, T/C (second compound 3.16 µM, first compound 0.000316 µM): 107%
viability, T/C (second compound 3.16 µM, first compound 0.001 µM): 105%
viability, T/C (second compound 3.16 µM, first compound 0.00316 µM): 109%
viability, T/C (second compound 3.16 µM, first compound 0.01 µM): 96.4%
viability, T/C (second compound 3.16 µM, first compound 0.0316 µM): 94.8%
viability, T/C (second compound 3.16 µM, first compound 0.1 µM): 85.7%
viability, T/C (second compound 10 µM, first compound 0.000316 µM): 94.3%
viability, T/C (second compound 10 µM, first compound 0.001 µM): 106%
viability, T/C (second compound 10 µM, first compound 0.00316 µM): 104%
viability, T/C (second compound 10 µM, first compound 0.01 µM): 98.8%
viability, T/C (second compound 10 µM, first compound 0.0316 µM): 78.1%
viability, T/C (second compound 10 µM, first compound 0.1 µM): 72.2%
